Ki data for four compounds are collected here from BindingDB's records for doi:10.1021/cb900083m (Genentech, 2009).

Structures are written as SMILES.

T1 sequence (Q13489 255-322): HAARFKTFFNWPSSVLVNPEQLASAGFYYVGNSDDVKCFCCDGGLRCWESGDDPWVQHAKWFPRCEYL

Target in one test: not listed separately
Briefly: Samples for fluorescence polarization affinity measurements were prepared by addition of serial dilutions of […] to each well containing antagonist and polarization probe in the buffer. Samples were read after 30-min incubation. Fluorescence polarization values were plotted as a function of the antagonist concentra. The conditions noted are these: pH 7.2.
As a reminder, the Ki is a dissociation constant, usually derived from enzyme kinetics or from competition with a known ligand. Low values mean higher affinity, high ones lower affinity. With `CN[C@@H](C)C(=O)N[C@H](C(=O)N1CC[C@H](C)[C@H]1C(=O)Nc1cc(C)nn1-c1ccccc1)C1CCCCC1` [CS-1], the Ki was 2.4 µM.

Consider `CN[C@@H](C)C(=O)N[C@H](C(=O)N1CCC[C@H]1C(=O)Nc1ccccc1-c1ncccn1)C1CCCCC1` [CS-2], for which affinity was put at a Ki of 5.05 µM.

Compound `CN[C@@H](C)C(=O)N[C@H](C(=O)N1CCC[C@H]1c1nc2c(-c3ccccc3Cl)nccc2s1)C1CCOCC1` [PS-1] yielded a Ki of 0.033 µM.

`CN[C@H](C)C(=O)N[C@@H](C(=O)N1CCC[C@@H]1c1nc2c(-c3ccccc3Cl)nccc2s1)C1CCOCC1` [ent-PS-1] showed a Ki of over 34 µM.

The next test addresses T1, Baculoviral IAP repeat-containing protein 3 [255-322] (Homo sapiens, UniProt Q13489).
T1 construct: 255-322
Briefly: Fluorescence Polarization Affinity Measurements. The conditions noted are these: pH 7.2; 22 °C. The procedure: (§1) Samples for fluorescence polarization affinity measurements were prepared by addition of serial dilutions of […] to each well containing antagonist and polarization probe in the buffer. Samples were read after 30-min incubation. Fluorescence polarization values were plotted as a function of the antagonist concentration, and the IC50 values were obtained by fitting the data to a four-parameter equation using KaleidaGraph software. Ki values for the antagonists were determined from the IC50 values.
The compound `CN[C@@H](C)C(=O)N[C@H](C(=O)N1CC[C@H](C)[C@H]1C(=O)Nc1cc(C)nn1-c1ccccc1)C1CCCCC1` [CS-1] yielded an inhibition constant (Ki) of 0.052 µM.

Consider `CN[C@@H](C)C(=O)N[C@H](C(=O)N1CCC[C@H]1C(=O)Nc1ccccc1-c1ncccn1)C1CCCCC1` [CS-2], for which the Ki was 0.114 µM.

In turn, `CN[C@@H](C)C(=O)N[C@H](C(=O)N1CCC[C@H]1c1nc2c(-c3ccccc3Cl)nccc2s1)C1CCOCC1` [PS-1] displayed a Ki of 0.096 µM.

Turning to `CN[C@H](C)C(=O)N[C@@H](C(=O)N1CCC[C@@H]1c1nc2c(-c3ccccc3Cl)nccc2s1)C1CCOCC1` [ent-PS-1], the Ki was over 34 µM.

Another test deals with T2, Baculoviral IAP repeat-containing protein 2 [269-336] (Homo sapiens, UniProt Q13490).
T2 construct: 269-336
T2 sequence (Q13490 269-336): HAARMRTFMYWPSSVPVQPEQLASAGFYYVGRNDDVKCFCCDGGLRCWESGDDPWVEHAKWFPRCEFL
Briefly: Fluorescence Polarization Affinity Measurements. The conditions noted are these: pH 7.2; 22 °C. The procedure: as §1
In general terms: In fluorescence polarisation assays a small probe gives low polarisation when free and higher when bound to something large.
`CN[C@@H](C)C(=O)N[C@H](C(=O)N1CC[C@H](C)[C@H]1C(=O)Nc1cc(C)nn1-c1ccccc1)C1CCCCC1` [CS-1] registered a Ki of 0.01 µM.

As to `CN[C@@H](C)C(=O)N[C@H](C(=O)N1CCC[C@H]1C(=O)Nc1ccccc1-c1ncccn1)C1CCCCC1` [CS-2], affinity was put at a Ki of 0.037 µM.

For `CN[C@@H](C)C(=O)N[C@H](C(=O)N1CCC[C@H]1c1nc2c(-c3ccccc3Cl)nccc2s1)C1CCOCC1` [PS-1], the Ki was 0.036 µM.

In turn, `CN[C@H](C)C(=O)N[C@@H](C(=O)N1CCC[C@@H]1c1nc2c(-c3ccccc3Cl)nccc2s1)C1CCOCC1` [ent-PS-1] gave a Ki of over 34 µM.
